{"source": "patent US20140348819A1", "about": "“Methods of Treating Cancer” (Dana-Farber Cancer Institute, Inc., priority 2011, published 2014)", "format_in_all_cases": "cell-based, human", "key": {"[1]": {"tested_on": "pERK/pAKT", "test": "High-throughput western analysis of pERK/pAKT re-activation by RTK ligands under BRAFi/MEKi"}, "[2]": {"tested_on": "V600E BRAF melanoma cell lines", "test": "HGF-induced / stromal resistance of melanoma cell lines to BRAF, MEK and AKT inhibitors and its reversal"}, "[3]": {"tested_on": "six V600E BRAF melanoma cell lines", "test": "Screening of recombinant RTK ligands for ability to confer resistance to BRAFi (PLX4720) or MEKi (PD184352) (Table 4)", "parameters": "ability of recombinant RTK ligand to confer resistance / ability of recombinant RTK ligand to confer resistance (screening value): scale not given here", "in_short": "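Resistance to BRAFi (PLX4720) or MEKi (PD184352) was tested in six V600E BRAF melanoma lines given one of 22 recombinant RTK ligands. For a subset of RTKs, activation was checked by high-throughput tyrosine kinase phosphorylation profiling and western blot.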"}}, "data": [{"substance": "HGF: paracrine cellular growth factor, ligand of the RTK c-MET", "values": [{"measurement": "activation of pAKT by HGF over time", "setting": "[1]; under BRAFi (PLX4720)", "value": "sustained over time"}, {"measurement": "reactivation of pERK by HGF", "setting": "[1]; under BRAFi (PLX4720)", "value": "substantially reactivate pERK"}, {"measurement": "re-activation of pERK/pAKT", "setting": "[1]; under BRAFi (PLX4720), after 1 hour of cytokine treatment, six V600E BRAF melanoma cell lines", "value": "reactivate both ERK and AKT"}, {"measurement": "reactivation of pERK by HGF", "setting": "[1]; under MEKi (PD184352)", "value": "not under MEKi"}, {"measurement": "activation of pAKT by RTK ligands", "setting": "[1]; under PLX4720, FIG. 10B", "value": "activates AKT in every cell lines tested"}, {"measurement": "duration of ERK/AKT activation", "setting": "[1]; under PLX4720 treatment", "value": "long lasting"}, {"measurement": "HGF-conferred resistance, BRAFi versus MEKi", "setting": "[2]; FIG. 11C", "value": "better resistance to BRAFi than MEKi"}, {"measurement": "HGF-conferred resistance", "setting": "[2]; combination of BRAFi and AKTi (MK-2206)", "value": "confers resistance"}, {"measurement": "ability of recombinant RTK ligand to confer resistance", "setting": "[3]; A2058, PD184352 - 1 uM, ligand 0.4 ng/ml", "value": 1.02}, {"measurement": "ability of recombinant RTK ligand to confer resistance", "setting": "[3]; A2058, PD184352 - 1 uM, ligand 1.6 ng/ml", "value": 1.01}, {"measurement": "ability of recombinant RTK ligand to confer resistance", "setting": "[3]; A2058, PD184352 - 1 uM, ligand 6.25 ng/ml", "value": 1.10}, {"measurement": "ability of recombinant RTK ligand to confer resistance", "setting": "[3]; A2058, PD184352 - 1 uM, ligand 25 ng/ml", "value": 1.10}, {"measurement": "ability of recombinant RTK ligand to confer resistance", "setting": "[3]; A2058, PD184352 - 1 uM, ligand 100 ng/ml", "value": 1.66}, {"measurement": "ability of recombinant RTK ligand to confer resistance", "setting": "[3]; A2058, PLX4720 - 2 uM, ligand 0.4 ng/ml", "value": 1.03}, {"measurement": "ability of recombinant RTK ligand to confer resistance", "setting": "[3]; A2058, PLX4720 - 2 uM, ligand 1.6 ng/ml", "value": 1.02}, {"measurement": "ability of recombinant RTK ligand to confer resistance", "setting": "[3]; A2058, PLX4720 - 2 uM, ligand 6.25 ng/ml", "value": 1.12}, {"measurement": "ability of recombinant RTK ligand to confer resistance", "setting": "[3]; A2058, PLX4720 - 2 uM, ligand 25 ng/ml", "value": 1.32}, {"measurement": "ability of recombinant RTK ligand to confer resistance", "setting": "[3]; A2058, PLX4720 - 2 uM, ligand 100 ng/ml", "value": 1.49}, {"measurement": "ability of recombinant RTK ligand to confer resistance", "setting": "[3]; C32, PD184352 - 1 uM, ligand 0.4 ng/ml", "value": 1.10}, {"measurement": "ability of recombinant RTK ligand to confer resistance", "setting": "[3]; C32, PD184352 - 1 uM, ligand 1.6 ng/ml", "value": 1.08}, {"measurement": "ability of recombinant RTK ligand to confer resistance", "setting": "[3]; C32, PD184352 - 1 uM, ligand 6.25 ng/ml", "value": 1.29}, {"measurement": "ability of recombinant RTK ligand to confer resistance", "setting": "[3]; C32, PD184352 - 1 uM, ligand 25 ng/ml", "value": 1.08}, {"measurement": "ability of recombinant RTK ligand to confer resistance", "setting": "[3]; C32, PD184352 - 1 uM, ligand 100 ng/ml", "value": 1.96}, {"measurement": "ability of recombinant RTK ligand to confer resistance", "setting": "[3]; C32, PLX4720 - 2 uM, ligand 0.4 ng/ml", "value": 1.04}, {"measurement": "ability of recombinant RTK ligand to confer resistance", "setting": "[3]; C32, PLX4720 - 2 uM, ligand 1.6 ng/ml", "value": 1.15}, {"measurement": "ability of recombinant RTK ligand to confer resistance", "setting": "[3]; C32, PLX4720 - 2 uM, ligand 6.25 ng/ml", "value": 1.42}, {"measurement": "ability of recombinant RTK ligand to confer resistance", "setting": "[3]; C32, PLX4720 - 2 uM, ligand 25 ng/ml", "value": 1.96}, {"measurement": "ability of recombinant RTK ligand to confer resistance", "setting": "[3]; C32, PLX4720 - 2 uM, ligand 100 ng/ml", "value": 2.01}, {"measurement": "ability of recombinant RTK ligand to confer resistance", "setting": "[3]; Colo 829, PD184352 - 1 uM, ligand 0.4 ng/ml", "value": 0.96}, {"measurement": "ability of recombinant RTK ligand to confer resistance", "setting": "[3]; Colo 829, PD184352 - 1 uM, ligand 1.6 ng/ml", "value": 0.99}, {"measurement": "ability of recombinant RTK ligand to confer resistance", "setting": "[3]; Colo 829, PD184352 - 1 uM, ligand 6.25 ng/ml", "value": 1.12}, {"measurement": "ability of recombinant RTK ligand to confer resistance", "setting": "[3]; Colo 829, PD184352 - 1 uM, ligand 25 ng/ml", "value": 1.41}, {"measurement": "ability of recombinant RTK ligand to confer resistance", "setting": "[3]; Colo 829, PD184352 - 1 uM, ligand 100 ng/ml", "value": 1.89}, {"measurement": "ability of recombinant RTK ligand to confer resistance", "setting": "[3]; Colo 829, PLX4720 - 2 uM, ligand 0.4 ng/ml", "value": 1.00}, {"measurement": "ability of recombinant RTK ligand to confer resistance", "setting": "[3]; Colo 829, PLX4720 - 2 uM, ligand 1.6 ng/ml", "value": 1.02}, {"measurement": "ability of recombinant RTK ligand to confer resistance", "setting": "[3]; Colo 829, PLX4720 - 2 uM, ligand 6.25 ng/ml", "value": 1.14}, {"measurement": "ability of recombinant RTK ligand to confer resistance", "setting": "[3]; Colo 829, PLX4720 - 2 uM, ligand 25 ng/ml", "value": 1.35}, {"measurement": "ability of recombinant RTK ligand to confer resistance", "setting": "[3]; Colo 829, PLX4720 - 2 uM, ligand 100 ng/ml", "value": 1.71}, {"measurement": "ability of recombinant RTK ligand to confer resistance", "setting": "[3]; G-361, PD184352 - 1 uM, ligand 0.4 ng/ml", "value": 1.17}, {"measurement": "ability of recombinant RTK ligand to confer resistance", "setting": "[3]; G-361, PD184352 - 1 uM, ligand 1.6 ng/ml", "value": 1.03}, {"measurement": "ability of recombinant RTK ligand to confer resistance", "setting": "[3]; G-361, PD184352 - 1 uM, ligand 6.25 ng/ml", "value": 1.19}, {"measurement": "ability of recombinant RTK ligand to confer resistance", "setting": "[3]; G-361, PD184352 - 1 uM, ligand 25 ng/ml", "value": 1.68}, {"measurement": "ability of recombinant RTK ligand to confer resistance", "setting": "[3]; G-361, PD184352 - 1 uM, ligand 100 ng/ml", "value": 1.10}, {"measurement": "ability of recombinant RTK ligand to confer resistance", "setting": "[3]; G-361, PLX4720 - 2 uM, ligand 0.4 ng/ml", "value": 0.97}, {"measurement": "ability of recombinant RTK ligand to confer resistance", "setting": "[3]; G-361, PLX4720 - 2 uM, ligand 1.6 ng/ml", "value": 1.03}, {"measurement": "ability of recombinant RTK ligand to confer resistance", "setting": "[3]; G-361, PLX4720 - 2 uM, ligand 6.25 ng/ml", "value": 1.24}, {"measurement": "ability of recombinant RTK ligand to confer resistance", "setting": "[3]; G-361, PLX4720 - 2 uM, ligand 25 ng/ml", "value": 2.27}, {"measurement": "ability of recombinant RTK ligand to confer resistance", "setting": "[3]; G-361, PLX4720 - 2 uM, ligand 100 ng/ml", "value": 9.24}, {"measurement": "ability of recombinant RTK ligand to confer resistance", "setting": "[3]; SK-MEL-5, PD184352 - 1 uM, ligand 0.4 ng/ml", "value": 0.99}, {"measurement": "ability of recombinant RTK ligand to confer resistance", "setting": "[3]; SK-MEL-5, PD184352 - 1 uM, ligand 1.6 ng/ml", "value": 1.17}, {"measurement": "ability of recombinant RTK ligand to confer resistance", "setting": "[3]; SK-MEL-5, PD184352 - 1 uM, ligand 6.25 ng/ml", "value": 1.16}, {"measurement": "ability of recombinant RTK ligand to confer resistance", "setting": "[3]; SK-MEL-5, PD184352 - 1 uM, ligand 25 ng/ml", "value": 1.81}, {"measurement": "ability of recombinant RTK ligand to confer resistance", "setting": "[3]; SK-MEL-5, PD184352 - 1 uM, ligand 100 ng/ml", "value": 2.32}, {"measurement": "ability of recombinant RTK ligand to confer resistance", "setting": "[3]; SK-MEL-5, PLX4720 - 2 uM, ligand 0.4 ng/ml", "value": 0.98}, {"measurement": "ability of recombinant RTK ligand to confer resistance", "setting": "[3]; SK-MEL-5, PLX4720 - 2 uM, ligand 1.6 ng/ml", "value": 1.37}, {"measurement": "ability of recombinant RTK ligand to confer resistance", "setting": "[3]; SK-MEL-5, PLX4720 - 2 uM, ligand 6.25 ng/ml", "value": 1.35}, {"measurement": "ability of recombinant RTK ligand to confer resistance", "setting": "[3]; SK-MEL-5, PLX4720 - 2 uM, ligand 25 ng/ml", "value": 1.95}, {"measurement": "ability of recombinant RTK ligand to confer resistance", "setting": "[3]; SK-MEL-5, PLX4720 - 2 uM, ligand 100 ng/ml", "value": 1.93}, {"measurement": "ability of recombinant RTK ligand to confer resistance", "setting": "[3]; SK-MEL-28, PD184352 - 1 uM, ligand 0.4 ng/ml", "value": 1.11}, {"measurement": "ability of recombinant RTK ligand to confer resistance", "setting": "[3]; SK-MEL-28, PD184352 - 1 uM, ligand 1.6 ng/ml", "value": 1.16}, {"measurement": "ability of recombinant RTK ligand to confer resistance", "setting": "[3]; SK-MEL-28, PD184352 - 1 uM, ligand 6.25 ng/ml", "value": 1.22}, {"measurement": "ability of recombinant RTK ligand to confer resistance", "setting": "[3]; SK-MEL-28, PD184352 - 1 uM, ligand 25 ng/ml", "value": 1.46}, {"measurement": "ability of recombinant RTK ligand to confer resistance", "setting": "[3]; SK-MEL-28, PD184352 - 1 uM, ligand 100 ng/ml", "value": 1.87}, {"measurement": "ability of recombinant RTK ligand to confer resistance", "setting": "[3]; SK-MEL-28, PLX4720 - 2 uM, ligand 0.4 ng/ml", "value": 1.05}, {"measurement": "ability of recombinant RTK ligand to confer resistance", "setting": "[3]; SK-MEL-28, PLX4720 - 2 uM, ligand 1.6 ng/ml", "value": 1.42}, {"measurement": "ability of recombinant RTK ligand to confer resistance", "setting": "[3]; SK-MEL-28, PLX4720 - 2 uM, ligand 6.25 ng/ml", "value": 1.55}, {"measurement": "ability of recombinant RTK ligand to confer resistance", "setting": "[3]; SK-MEL-28, PLX4720 - 2 uM, ligand 25 ng/ml", "value": 3.85}, {"measurement": "ability of recombinant RTK ligand to confer resistance", "setting": "[3]; SK-MEL-28, PLX4720 - 2 uM, ligand 100 ng/ml", "value": 2.20}, {"measurement": "ability of RTK ligand to confer primary resistance", "setting": "[3]; six V600E BRAF melanoma cell lines, BRAFi (PLX4720) or MEKi (PD184352)", "value": "confer substantial primary resistance"}]}]}
